Each structure is given as a SMILES string.

Series [1] can be described thus: Protocol 136: body weight, adverse events and toxicity. It counts as in vivo, B6-huCEA mice. An excerpt:
(§1) Primary solid xenografts were established in each B6-huCEA or huCEACAM5 mouse on study day 0 through subcutaneous (SC) or intrapancreatic injection of carcinoembryonic antigen (CEA)-expressing tumor cells. […] Indications of pain, distress, or discomfort include, but are not limited to, acute body weight (BW) loss, scruffy fur, diarrhea, hunched posture, pale skin, and reluctance to move. Poor SC tumor status (e.g. ulceration, teeth marks, or open wounds) may also prompt euthanasia; in the orthotopic model, abdominal swelling indicates increasing tumor burden, which may prompt euthanasia.
(§2) SC tumor volumes were estimated through manual calipering 3 times per week, calculated according to the formula: volume 0.5× length×width^2. Additional tumor measurements were made as needed depending on the tumor growth rate. In the orthotopic model, the tumor progress was assessed regularly through bioluminescence imaging (BLI). The BW of the animals was measured at least 3 times per week, with additional measurements as needed depending on the health status. Mice whose BW loss exceeded 20% of their initial BW or whose tumor volume reached 3000 mm^3 (Protocols 119, 136, 150) or 2000 mm^3 (Protocol 195) were euthanized immediately.
No mice were euthanized due to acute post-injection BW loss; 1 tumor-free CEA-PRIT mouse was euthanized on day 117 after a sudden decline in overall status. […]

Series [2] can be described thus: Protocol 150: body weight, adverse events and toxicity. It counts as in vivo.
Text: as §1, §2
No mice were euthanized due to acute post-injection BW loss.
Reactions included sluggish behaviour, somnolence, and death in 1/14 mice. […]

The nature of series [3]: Protocol 119: body weight, adverse events and toxicity. The series is classed as in vivo.
A short description of series [4]: Protocol 195: body weight, adverse events and toxicity. It counts as in vivo.

`NC(=O)CN1CCN(CC(N)=O)CCN(CC(N)=O)CCN(CC(N)=O)CC1.[212Pb+2]` [^212Pb-DOTAM]: the body weight change entry in series [1] is “transient weight loss in irradiated mice”; in series [2], “transient weight loss in irradiated mice”; in series [3] it was “transient weight loss in irradiated mice”; in series [4], “did not cause any significant weight loss by itself”.

The record behind these values is patent US20240173442A1, “COMBINATION THERAPY” (Hoffmann-La Roche Inc., priority 2021, published 2024).
